# Patent US5464796A, “7-isoindolinyl-quinolone-carboxylic acid derivatives” (Bayer Aktiengesellschaft, priority 1991, dated 1995)
# Key:
# Test in all cases: MIC by series dilution on Iso-Sensitest agar
# E. coli = format: cell-based, Escherichia coli; conditions: 37° C., about 20 hours, 10^4 colony-forming particles per spot; for MIC: Escherichia coli, 20 h
# Experimental: (§1) The minimum inhibitory concentrations (MIC) were determined by series dilution methods on Iso-Sensitest agar (Oxoid). A series of agar plates each containing active compound concentrations decreasing by twofold dilution each time were prepared for each test substance. The agar plates were inoculated with a Multipoint inoculator (Denley). Overnight cultures of the pathogens, which were first diluted so that each inoculum spot contained about 10^4 colony-forming particles, were used for the inoculation. The inoculated agar plates were incubated at 37° C. and the germ growth was read off after about 20 hours. The MIC value (μg/ml) indicates the lowest active compound concentration at which no growth was to be detected with the naked eye.
# (§2) The MIC values of some of the compounds according to the invention are shown in the following table in comparison with 7-(4-amino-1,3-dihydro-isoindol-2-yl)-1-cyclopropyl-6,8-difluoro-1,4-dihydro-4-oxo-3-quinolinecarboxylic acid (EP 343,560, Example 2).
# Klebsiella sp. = format: cell-based; conditions: strain 8085, 37° C., about 20 hours, 10^4 colony-forming particles per spot; for MIC: Klebsiella
# Experimental: as §1, §2
# Morganella morg. = format: cell-based; conditions: strain 932, 37° C., about 20 hours, 10^4 colony-forming particles per spot; for MIC: Morganella, 20 h
# Experimental: as §1, §2
# Providencia spp. = format: cell-based; conditions: strain 12012, 37° C., about 20 hours, 10^4 colony-forming particles per spot; for MIC: Providencia, 20 h
# Experimental: as §1, §2
# Staphyloccus aureus = format: cell-based, Staphylococcus aureus; conditions: 37° C., about 20 hours, 10^4 colony-forming particles per spot; for MIC: Staphylococcus aureus, 20 h
# Experimental: as §1, §2
# Enterocococus faecalis = format: cell-based, Enterococcus faecalis; conditions: 37° C., about 20 hours, 10^4 colony-forming particles per spot; for MIC: Enterococcus faecalis, 20 h
# Experimental: as §1, §2
# Pseudomonas aeruginasa = format: cell-based, Pseudomonas aeruginosa; conditions: strain Walter, 37° C., about 20 hours, 10^4 colony-forming particles per spot; for MIC: Pseudomonas, 20 h
# Experimental: as §1, §2
SMILES,MIC values (E. coli; strain 455/7),MIC values (E. coli; strain Neumann),MIC values (Klebsiella sp.),MIC values (Morganella morg.),MIC values (Providencia spp.),MIC values (Staphyloccus aureus; strain 133),MIC values (Staphyloccus aureus; strain 1756),MIC values (Enterocococus faecalis; strain 9790),MIC values (Enterocococus faecalis; strain 27101),MIC values (Pseudomonas aeruginasa) [µg/mL],MIC (E. coli; strain 455/7) [µg/mL],MIC (E. coli; strain Neumann) [µg/mL],MIC (Klebsiella sp.) [µg/mL],MIC (Morganella morg.) [µg/mL],MIC (Providencia spp.) [µg/mL],MIC (Staphyloccus aureus; strain 133) [µg/mL],MIC (Staphyloccus aureus; strain 1756) [µg/mL],MIC (Enterocococus faecalis; strain 9790) [µg/mL],MIC (Enterocococus faecalis; strain 27101) [µg/mL],MIC (Pseudomonas aeruginasa) [µg/mL]
CNC1C=CCC2CN(c3c(F)cc4c(=O)c(C(=O)O)cn(C5CC5)c4c3Cl)CC21 (centres unmarked) [9 B],"0,5 μg/ml","0,02 μg/ml","0,03 μg/ml","0,06 μg/ml","0,06 μg/ml","0,03 μg/ml","0,03 μg/ml","0,02 μg/ml","0,03 μg/ml",1,–,–,–,–,–,–,–,–,–,–
CNC1C=CCC2CN(c3nc4c(cc3F)c(=O)c(C(=O)O)cn4-c3ccc(F)cc3F)CC21 (centres unmarked) [11 B],–,–,–,–,–,–,–,–,–,–,16,0.25,0.5,0.5,0.5,0.06,0.06,0.25,0.25,8
"CNC1C=CCC2CN(c3c(F)cc4c(=O)c(C(=O)O)cn(C5CC5)c4c3F)CC21 (centres unmarked) [Example 1, 1-cyclopropyl-6,8-difluoro-1,4-dihydro-7-(4-methylamino-1,3,3a,4,7,7a-hexahydro-isoindol-2-yl)-4-oxo-3-quinolinecarboxylic acid]",–,–,–,–,–,–,–,–,–,–,0.5,0.02,0.06,0.06,0.06,0.02,0.02,0.03,0.03,1
CNC1C=CCC2CN(c3cc4c(cc3F)c(=O)c(C(=O)O)cn4C3CC3)CC21 (centres unmarked) [Example 2],–,–,–,–,–,–,–,–,–,–,2,0.03,–,–,0.13,0.02,0.02,0.06,0.06,2
"CNC1C=CCC2CN(c3c(F)cc4c(=O)c(C(=O)O)cn(C5CC5)c4c3Cl)CC21 (centres unmarked) [Example 3, 8-chloro-1-cyclopropyl-6-fluoro-1,4-dihydro-7-(4-methylamino-1,3,3a,4,7,7a-hexahydro-isoindol-2-yl)-4-oxo-3-quinolinecarboxylic acid]",–,–,–,–,–,–,–,–,–,–,0.25,0.02,0.03,0.03,0.03,0.02,0.02,0.02,0.02,0.5
CNC1C=CCC2CN(c3cc4c(c(C)c3F)c(=O)c(C(=O)O)cn4C3CC3)CC21 (centres unmarked) [Example 4],–,–,–,–,–,–,–,–,–,–,16,0.13,0.25,0.5,0.25,0.03,0.03,0.13,0.13,16
CNC1C=CC(C)C2CN(c3cc4c(cc3F)c(=O)c(C(=O)O)cn4C3CC3)CC12 (centres unmarked) [Example 5],–,–,–,–,–,–,–,–,–,–,2,0.06,0.06,0.06,0.13,0.02,0.02,0.03,0.03,2
CNC1C=CC(C)C2CN(c3c(F)cc4c(=O)c(C(=O)O)cn(C5CC5)c4c3F)CC12 (centres unmarked) [Example 6],–,–,–,–,–,–,–,–,–,–,1,0.03,0.06,0.06,0.13,0.02,0.02,0.06,0.06,2
"CNC1C=CCC2CN(c3nc4c(cc3F)c(=O)c(C(=O)O)cn4C3CC3)CC21.Cl (centres unmarked) [Example 10, 1-cyclopropyl-6-fluoro-1,4-dihydro-7-(4-methylamino-1,3,3a,4,7,7a-hexahydroisoindol-2-yl)-4-oxo-1,8-naphthyridine-3-carboxylic acid hydrochloride]",–,–,–,–,–,–,–,–,–,–,8,0.06,0.13,0.25,0.25,0.06,0.06,0.25,0.25,4
"Nc1cccc2c1CN(c1c(F)cc3c(=O)c(C(=O)O)cn(C4CC4)c3c1F)C2 [Ref, 7-(4-amino-1,3-dihydro-isoindol-2-yl)-1-cyclopropyl-6,8-difluoro-1,4-dihydro-4-oxo-3-quinolinecarboxylic acid, reference compound]",–,–,–,–,–,–,–,–,–,–,128,0.5,4,1,1,0.03,0.03,1,0.5,128
